This data set can be described thus: Human HepG2 cell viability assay in 384 well format. Further details: dose 125 nL, time 70.5 hour; cytotoxicity at 70.5 h: concentration not given beside the values. The class given is toxicity, cell-based. The following applies: HepG2 cells, read-out: Inhibition.
Consider `Fc1cccc(-c2nnn3c2COC(CNc2ncccn2)C3)c1` (centres undefined), for which the cytotoxicity at 70.5 h is 26.8%.

Regarding `CN(Cc1ncnn1C)C(=O)c1ccccc1NCc1ccccc1`, the cytotoxicity at 70.5 h stood at 8.8%. To `Cc1cc(C)n(CC2CN(c3nnc(C)c(C)c3C#N)CCO2)n1` (centres undefined) belongs -3.24%; to `Cc1cc(C)cc(N(CCC#N)C(=O)CN2CCCC2c2cccs2)c1` (centres undefined), 25.9%; to `CCOCC1CN(S(C)(=O)=O)Cc2nn(C)cc21` (centres undefined), -3.61%. Regarding `Cc1noc(-c2c[nH]nc2C2CCCN2C(=O)c2ccccc2)c1C` (centres undefined), the cytotoxicity at 70.5 h is -4.46%.

Take `O=C1N(Cc2cccc(F)c2F)CCCC1(O)CNCc1ccccc1` (centres undefined): the cytotoxicity at 70.5 h was found to be 19.6%.

For the molecule `O=C1COc2cc(C(=O)N3CCCC(n4cccn4)C3)ccc2N1` (centres undefined), the cytotoxicity at 70.5 h was -1.96%. For `Fc1ccccc1Cc1noc(CN2CCCC(CN3CCCC3)C2)n1` (centres undefined), the cytotoxicity at 70.5 h was -2.47%.

As for `CCN(CC(=O)NCCc1nc(C)no1)Cc1ccc(Cl)cc1`, the cytotoxicity at 70.5 h was -2.02%.

`CS(=O)(=O)N1C[C@H]2C[C@H](C(=O)N3CCOCC3)[C@@H](C1)O2`: the cytotoxicity at 70.5 h was -6.47%. Turning to `c1cc(CN2C[C@@H]3OCCN(CC4CCCO4)[C@@H]3C2)ccn1` (some centres undefined), the cytotoxicity at 70.5 h was found to be 8.75%. The same measure for `O=C(c1ccn(-c2ccccc2)n1)N1CCCC(n2cccn2)C1` (centres undefined): -0.6%; for `CCOCCc1nc(Cc2ccccc2)n[nH]1`: -14.4%; for `COCCC(=O)N(Cc1cccnc1)CC1CCN(C2CCCC2)CC1`: 3.05%. For the molecule `Cc1cnc(C(=O)N2C[C@H]3CN(Cc4cccc(F)c4)C(=O)[C@H]3C2)cn1`, the cytotoxicity at 70.5 h came out at 10.5%. On to `O=C(NCCC1=CCCCC1)c1cc(-c2ccc(O)cc2)n[nH]1`, for which the cytotoxicity at 70.5 h is -1.77%. The same measure for `CC(NC(=O)NCCCc1n[nH]c(N)c1C#N)c1cccc(Cl)c1` (centres undefined): -4.21%; for `O=C(c1cccnn1)N1C[C@@H]2CC[C@H](Oc3cccc(F)c3)[C@@H]2C1`: 14.9%; for `CN1[C@@H](c2ccccc2)[C@@H](C(=O)NCc2ccccn2)C[C@@]1(C)C(=O)O`: 23%.

Turning to `CC(C)CC(NC(=O)c1cnn(C)c1)C(=O)Nc1cc[nH]n1` (centres undefined), the cytotoxicity at 70.5 h was 0.0249%. As for `CCc1cccc(N2CCC(NC(=O)C3CCOCC3)CC2)c1`, the cytotoxicity at 70.5 h was -5.26%.

As for `CC(c1nc(C2CC2)no1)N1CCN(Cc2ccccc2)CC1` (centres undefined), the cytotoxicity at 70.5 h was -4.04%. To `O=C1[C@@H]2CN(Cc3ccccn3)C[C@H]2CCN1c1cncnc1` belongs -4.74%; to `Cc1n[nH]c(C)c1-c1cnc(CC2CCCN(S(C)(=O)=O)C2)cn1` (centres undefined), -10.2%; to `FC(F)(F)C1CCCn2c(CNCc3ccco3)nnc21` (centres undefined), 35.4%. To `Cc1ccc(F)c(C(=O)N2CCN(S(C)(=O)=O)[C@@H](C)C2)c1` belongs -3.67%. The same measure for `CN1CCC2(CC1)CN(Cc1ccc(C3CCCCO3)o1)CCCN2C` (centres undefined): -4.97%.

Consider `Cn1cc(C(=O)NC(Cn2cccn2)C(C)(C)C)cn1` (centres undefined), for which the cytotoxicity at 70.5 h stood at 2.11%. As for `COC(=O)c1ncccc1N1CCCC1`, the cytotoxicity at 70.5 h was -2.82%.

Regarding `COc1ccccc1OCc1nc2cc3c(cc2c(=O)o1)OCCCO3`, the cytotoxicity at 70.5 h turned out to be 31.8%.

With `Cc1ccsc1S(=O)(=O)N1CCc2c(c(C(=O)O)nn2CC2CC2)C1`, the cytotoxicity at 70.5 h was -7.3%.

Take `Cc1cc2cc(C(=O)N[C@@H]3CC[C@@H](N4CCCC4)[C@@H]3O)ccc2o1`: the cytotoxicity at 70.5 h was -5.68%.

Regarding `Cc1cnc(NCCc2c[nH]cn2)nc1-c1ccnn1C`, the cytotoxicity at 70.5 h was -11.6%.

Turning to `O=C(CCc1ccco1)Nc1cccc(S(=O)(=O)C(F)F)c1`, the cytotoxicity at 70.5 h is -9.11%. To `COCCN(CCOC)C(=O)NC1CCCCC1` belongs -4.8%; to `O=S(=O)(c1ccc(F)cc1)n1cc(Cl)cn1`, -10.6%; to `CCC1(CC)CC(=O)N(CC(O)c2cccc(F)c2)C1=O` (centres undefined), -3.42%. Consider `O=C(C1CCN(c2cccnn2)C1)N1CCOCC1` (centres undefined), for which the cytotoxicity at 70.5 h turned out to be 1.06%.

With `CCOc1ccc(C#N)cc1NC(=O)N1CCC(n2cncn2)CC1`, the cytotoxicity at 70.5 h was determined as 5.95%.

As for `CS(=O)(=O)CC1CCCN(C(=O)Cn2cccc(C(F)(F)F)c2=O)C1` (centres undefined), the cytotoxicity at 70.5 h was found to be 6.87%.

Take `CCCS(=O)(=O)N1CCN(C(=O)CO)CC1`: the cytotoxicity at 70.5 h was -6.95%.

For the molecule `O=C(c1ccco1)N1CCC[C@]2(C[C@H](Oc3ncccc3F)CO2)C1`, the cytotoxicity at 70.5 h is -1.08%.

Turning to `COc1ccc2c(c1)nc1n2[C@@H](CNC(=O)c2ccccn2)COC1`, the cytotoxicity at 70.5 h is -7.73%. The same measure for `Cc1ccc(NC(=O)[C@H]2C[C@H](C(=O)O)CN(CC(C)C)C2)cn1`: -11.2%. The same measure for `COc1ccc(C)c2c1N(C(=O)c1cnc(C)s1)CCC2`: -1.73%. Take `COc1ccc(CN2C[C@@H]3OCCN(C)[C@@H]3C2)cc1`: the cytotoxicity at 70.5 h was -4.77%. The same measure for `CCOC(=O)CC(C)NC(=O)c1cn(Cc2ccccc2F)nn1` (centres undefined): -1.02%. To `Cc1nc[nH]c1CN1CCC2(CC1)CC(Nc1ncccn1)CO2` (centres undefined) belongs -94.8%; to `CC(=O)N1CCC[C@H]1C(=O)NCCOc1cccc(Cl)c1`, 0.931%; to `CNC(=O)[C@@H]1CN(C(=O)COC)C[C@H]1c1ccnc(N2CCCC2)n1`, -5.21%. Take `CNC(=O)[C@@H](C1CCCCC1)N1CCC[C@H]1C(=O)N(C)CCN(C)C`: the cytotoxicity at 70.5 h was -4.67%.

Consider `CCC(=O)Nc1ccc2c(ccn2CCOC)c1`, for which the cytotoxicity at 70.5 h is -8.06%. For `CCNC(=O)N1CCC(OC)c2ccccc2N(CC(=O)NC)C(=O)C1` (centres undefined), the cytotoxicity at 70.5 h was -2.79%.

In the case of `CN1CCN(Cc2cn3c(n2)CN(C(=O)N2CCOCC2)CC3)CC1`, the cytotoxicity at 70.5 h was -3.86%.

As to `Cc1cnc(C(=O)N2CCc3c(nc(-c4ccncc4)[nH]c3=O)C2)cn1`, the cytotoxicity at 70.5 h was -3.01%.

Consider `CC(C)c1nccc(C2CC(=O)Nc3n[nH]c(C4CCC4)c32)n1` (centres undefined), for which the cytotoxicity at 70.5 h is 2.19%. On to `Cc1ccc(NS(=O)(=O)c2cc3c(c(C(=O)O)c2)OCCO3)cc1F`, for which the cytotoxicity at 70.5 h was -3.64%. The same measure for `CC(C)CCNC(=O)CNC(=O)N1CCc2c([nH]c3ccc(Cl)cc23)C1`: -19.7%; for `CC(O)CN1CCc2[nH]nc(C(c3ccccc3)c3ccccc3)c2C1` (centres undefined): -5.7%. To `CN(C)C(=O)CN1CCc2onc(-c3ccccc3F)c2C1` belongs 48.8%; to `Cc1cc(N2CCCC2c2nnc3n2CCCCC3)nc(N)n1` (centres undefined), 22.8%; to `COCCCNC(=O)CN1CCCC1c1c(C)nn(C)c1Cl` (centres undefined), 27.1%. The same measure for `CN(C)C(=O)CN1C[C@H]2CCN(C(=O)c3ccncc3)CC[C@H]2S1(=O)=O`: -3.99%. With `Cc1ccc(N2CCCC(Nc3nn4cc(C)nc4s3)C2)nn1` (centres undefined), the cytotoxicity at 70.5 h is -9.29%.

`CNC(=O)c1sc(C2CCCC2)nc1C`: the cytotoxicity at 70.5 h is -5.12%.

For the molecule `COc1ccc(C(=O)C2CCCN(Cc3ccccc3O)C2)c(OC)c1` (centres undefined), the cytotoxicity at 70.5 h came to 35.7%. The same measure for `CCCN(CCO)C(=O)c1cc(COc2ccc3c(c2)CCCC3)on1`: 11.2%; for `CC(=O)N1CCCC2(CCC(=O)N2Cc2cccnc2)C1` (centres undefined): 30.1%.

The record behind these values is ChEMBL document CHEMBL3507680, “University of Dundee, Gates Library screen for HepG2 cell viability”.
